Values of other authors in patent US10954336B2 (SCRUM Co., Ltd., priority 2017, dated 2021).

Conditions: comparison / conventional substances

Structure (SMILES): C[C@H](O)C(=O)O [L-lactic acid]
- Acidity: yes
